Key:
in vitro = assay: in vitro
Summary of the method: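 Cytoprotection read-out: CellTiter-Glo chemiluminescence after 5 days at 37 °C of HIV-IIIb-infected MT-4 cells (m.o.i. 0.003) with compound in 10-point 3-fold dilutions, quadruplicate, 10% FBS. Cytotoxicity (CC50) measured identically without virus.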

HIV-IIIb = assay: Test A: Antiviral assay in MT4 cells; assay type: cell-based, HIV-1; details: Human immunodeficiency virus 1, IIIB, MT4, 120 h, read-out: % inhibition at 2 μM, percent inhibition of virus-induced cell killing, from dose response curve at 2 uM drug; MT-4 cells infected with HIV-IIIb, 5 days, CellTiter-Glo
[1] = human, uninfected MT-4 cells, CC50 (nM), same protocol as Test A, CellTiter-Glo

Structure (SMILES)	CC50 at 5 days (in vitro; [1]) [nM]	inhibition at 2 µM (HIV-IIIb) [%]	CC50 at 5 days (in vitro; human, CC50 (nM), uninfected MT-4 cells, same protocol as Test A, CellTiter-Glo) [nM]
O=C(Cn1[nH]c(=O)c2c1CCCC2)N[C@@H](Cc1cc(F)cc(F)c1)c1ncccc1-c1ccc(Cl)cc1 [Example 146, (S)—N-(1-(3-(4-chlorophenyl)pyridin-2-yl)-2-(3,5-difluorophenyl)ethyl)-2-(3-oxo-2,3,4,5,6,7-hexahydro-1H-indazol-1-yl)acetamide]	20600	66	
O=C(Cn1nc(C(F)F)c2c1C(F)(F)C1CC21)N[C@@H](Cc1cc(F)cc(F)c1)c1ncccc1-c1ccc2nccnc2c1 (stereo partly drawn) [Example 415, (S)—N-(1-(3-(quinoxalin-6-yl)-pyridin-2-yl)-2-(3,5-difluorophenyl)ethyl)-2-(3-(difluoromethyl)-5,6-dihydro-4,5-(methano)-6,6-difluoro-cyclopenta[c]pyrazol-1(4H)-yl)acetamide]	38000	39	
NC(=O)c1cc(-c2cccnc2[C@H](Cc2cc(F)cc(F)c2)NC(=O)Cn2nc(C(F)(F)F)c3c2CCC(O)C3)ccc1F (stereo partly drawn) [Example 448, 5-(2-((1S)-2-(3,5-difluorophenyl)-1-(2-(5-hydroxy-3-(trifluoromethyl)-4,5,6,7-tetrahydro-1H-indazol-1-yl)acetamido)ethyl)pyridin-3-yl)-2-fluorobenzamide]	> 53200	103	
Cc1ccc2cc(-c3cccnc3[C@H](Cc3cc(F)cc(F)c3)NC(=O)Cn3nc(C(F)F)c4c3C(F)(F)C3CC43)ccc2n1 (stereo partly drawn) [Example 75, (S)—N-(1-(3-(2-methylquinoline-6-yl)-pyridin-2-yl)-2-(3,5-difluorophenyl)ethyl)-2-(3-(difluoromethyl)-5,6-dihydro-4,5-(methano)-6,6-difluoro-cyclopenta[c]pyrazol-1(4H)-yl)acetamide]	10700	17	
CC(=O)c1cn(CC(=O)N[C@@H](Cc2cc(F)cc(F)c2)c2ncccc2-c2ccc(Cl)cc2)c2ccccc12 [Example 541, (S)-2-(3-acetyl-1H-indol-1-yl)-N-(1-(3-(4-chlorophenyl)pyridin-2-yl)-2-(3,5-difluorophenyl)ethyl)acetamide]		37	8150
O=C(Cc1c[nH]c2ccc(F)cc12)N[C@@H](Cc1cc(F)cc(F)c1)c1ncncc1-c1ccc(Cl)cc1 [Example 365, (S)—N-(1-(5-(4-chlorophenyl)pyrimidin-4-yl)-2-(3,5-difluorophenyl)ethyl)-2-(5-fluoro-1H-indol-3-yl)acetamide]	12500	86	
NC(=O)c1cc(-c2cccnc2[C@H](Cc2cc(F)cc(F)c2)NC(=O)Cn2nc(C=O)c3c2C2CCC3C2)ccc1F (stereo partly drawn) [Example 403, (S)-5-(2-(2-(3,5-difluorophenyl)-1-(2-(4,5,6,7-tetrahydro-3-formyl-4,7-(methano)indazol-1-yl)acetamido)ethyl)pyridin-3-yl)-2-fluorobenzamide]	10500	112	
CCc1cc(C(F)(F)F)nn1CC(=O)N[C@@H](Cc1cc(F)cc(F)c1)c1ncccc1-c1ccc(F)c(C(N)=O)c1 [Example 461, (S)-5-(2-(2-(3,5-difluorophenyl)-1-(2-(5-ethyl-3-(trifluoromethyl)-1H-pyrazol-1-yl)acetamido)ethyl)pyridin-3-yl)-2-fluorobenzamide]	32000	25	
CC(C)(C)OC(=O)N1Cc2c(C(F)(F)F)nn(CC(=O)N[C@@H](Cc3cc(F)cc(F)c3)c3ncccc3-c3ccc(F)c(C(N)=O)c3)c2C1 [Example 227, (S)-tert-butyl 1-(2-((1-(3-(3-carbamoyl-4-fluorophenyl)pyridin-2-yl)-2-(3,5-difluorophenyl)ethyl)amino)-2-oxoethyl)-3-(trifluoromethyl)-4,6-dihydropyrrolo[3,4-c]pyrazole-5(1H)-carboxylate]	14300	1	
NC(=O)c1cc(-c2cccnc2[C@H](Cc2cc(F)cc(F)c2)NC(=O)Cc2c[nH]c3ccc(F)cc23)ccn1 [Example 294, (S)-2-(2-(3,5-difluorophenyl)-1-(2-(5-fluoro-1H-indol-3-yl)acetamido)ethyl)-3,4′-bipyridine-2′-carboxamide]	20500	114	
COc1ccc(-c2cccnc2[C@@H](Cc2ccccc2)NC(=O)Cn2nc(C(F)(F)F)c3c2CCCC3)c(C)c1 [Example 18, (R)—N-(1-(3-(4-methoxy-2-methylphenyl)pyridin-2-yl)-2-phenylethyl)-2-(3-(trifluoromethyl)-4,5,6,7-tetrahydro-1H-indazol-1-yl)acetamide]	14600	0	
NC(=O)c1cc(-c2cccnc2[C@H](Cc2cc(F)cc(F)c2)NC(=O)Cn2ccnc2-c2ccccc2)ccc1F [Example 149, (S)-5-(2-(2-(3,5-difluorophenyl)-1-(2-(2-phenyl-1H-imidazol-1-yl)acetamido)ethyl)pyridin-3-yl)-2-fluorobenzamide]	> 53200	2	
NC(=O)c1cc(-c2cccnc2[C@H](Cc2cc(F)cc(F)c2)NC(=O)Cn2nc(C(F)(F)F)c3c2CC(O)CC3)ccc1F (stereo partly drawn) [Example 325, 5-(2-((1S)-2-(3,5-difluorophenyl)-1-(2-(6-hydroxy-3-(trifluoromethyl)-4,5,6,7-tetrahydro-1H-indazol-1-yl)acetamido)ethyl)pyridin-3-yl)-2-fluorobenzamide]	46100	86	
NC(=O)c1cc(-c2cccnc2[C@H](Cc2cc(F)cc(F)c2)NC(=O)Cn2nc3c(c2C(F)(F)F)C(F)(F)C2CC32)ccc1F (stereo partly drawn) [Example 381, 5-(2-((1S)-1-(2-(4,4-difluoro-3-(trifluoromethyl)-4,4-a,5,5a-tetrahydro-2H-cyclopropa[4,5]cyclopenta[1,2-c]pyrazol-2-yl)acetamido)-2-(3,5-difluorophenyl)ethyl)pyridin-3-yl)-2-fluorobenzamide]	24900	1	
O=C(Cn1cnc2c1CCCC2)N[C@@H](Cc1cc(F)cc(F)c1)c1ncccc1Br [Example 286, (S)—N-(1-(3-bromopyridin-2-yl)-2-(3,5-difluorophenyl)ethyl)-2-(4,5,6,7-tetrahydro-1H-benzo[d]imidazol-1-yl)acetamide]	25200	0	
NC(=O)c1cc(-c2cccnc2[C@H](Cc2cc(F)cc(F)c2)NC(=O)Cn2nc(C(F)F)c3c2C(O)C2CC32)ccc1F (stereo partly drawn) [Example 212, 5-(2-((1S)-1-(2-(3-(difluoromethyl)-5-hydroxy-3b,4,4a,5-tetrahydro-1H-cyclopropa[3,4]cyclopenta[1,2-c]pyrazol-1-yl)acetamido)-2-(3,5-difluorophenyl)ethyl)pyridin-3-yl)-2-fluorobenzamide]	> 53200	69	
NC(=O)c1cc(-c2cccnc2[C@H](Cc2cc(F)cc(F)c2)NC(=O)Cc2c[nH]c3ccc(O)cc23)ccc1Cl [Example 40, (S)-2-chloro-5-(2-(2-(3,5-difluorophenyl)-1-(2-(5-hydroxy-1H-indol-3-yl)acetamido)ethyl)pyridin-3-yl)benzamide]	> 48900	99	
CC(C)(C)OC(=O)N1CC(=O)C[C@H]1C(=O)N[C@@H](Cc1cc(F)cc(F)c1)c1ncccc1-c1ccc(F)c(C(N)=O)c1 [Example 137, (S)-tert-butyl 2-((S)-1-(3-(3-carbamoyl-4-fluorophenyl)pyridin-2-yl)-2-(3,5-difluorophenyl)ethylcarbamoyl)-4-oxopyrrolidine-1-carboxylate]	21700	1	

From patent US9540343B2 (Gilead Sciences, Inc., priority 2011, dated 2017)
